Common to all, as to format: in vivo, ddY mouse
Assay [1] is described as follows: Blood pressure by tail-cuff method, Test Example 1. As for the experimental part: The therapeutic effect of olmesartan medoxomil in Aβ injection model and the dose dependency thereof were examined according to the following experimental schedule. [Experimental Schedule]: Prior to the experiment, 8-week old male ddY mice were administered olmesartan medoxomil (0.5 mg/kg/day, 1 mg/kg/day, 3 mg/kg/day or 6 mg/kg/day) or distilled water orally for four weeks (day −28 to −1). Then, Aβ 1-40 was administered to the mice intracerebroventricularly (day 0). (Although Aβ 1-40 was administered into one of the lateral ventricles in WO 2006/059777, Aβ 1-40 was administered in Test Example 1 to both lateral ventricles with an interval of one day between two administrations. Except for this point, Aβ 1-40 administration was performed in the same manner as in WO 2006/059777.) From one week thereafter, a behavioral test to evaluate cognitive function (Morris water maze test; Morris R et al., J Neuroscience Methods 1984, 11, 47-60) was performed (day 7 to 12). As a negative control, mice which had received oral administration of distilled water for four weeks were administered Aβ 40-1 intracerebroventricularly. The administration of olmesartan medoxomil or distilled water was continued until the end of the behavioral test. Measurements were performed as described below. • Hidden platform test: A platform is placed below the water surface of a water pool 150 cm in diameter filled with white water-colored. Mice are released into the water, and the time it takes them to reach the platform is measured. This trial is performed three times a day and for five consecutive days. As they learn, mice become able to reach the platform more quickly day by day. • Visible platform test: Mice are released into the water under such conditions that they can see the platform. The time it takes them to reach the platform is measured. • Probe test: The platform is removed, and mice are released and allowed to swim freely. […] The time they spent in that quadrant is measured. • Annnulus crossing: The number of times mice crossed the platform in the probe test is counted. […]

Assay [2] relates to Aβ injection model (Aβ 1-40 administered intracerebroventricularly). The assay is described as follows: Morris water maze test in Aβ injection model, Test Example 1. On the procedure:
The therapeutic effect of olmesartan medoxomil in Aβ injection model and the dose dependency thereof were examined according to the following experimental schedule. [Experimental Schedule]: Prior to the experiment, 8-week old male ddY mice were administered olmesartan medoxomil (0.5 mg/kg/day, 1 mg/kg/day, 3 mg/kg/day or 6 mg/kg/day) or distilled water orally for four weeks (day −28 to −1). Then, Aβ 1-40 was administered to the mice intracerebroventricularly (day 0). (Although Aβ 1-40 was administered into one of the lateral ventricles in WO 2006/059777, Aβ 1-40 was administered in Test Example 1 to both lateral ventricles with an interval of one day between two administrations. Except for this point, Aβ 1-40 administration was performed in the same manner as in WO 2006/059777.) From one week thereafter, a behavioral test to evaluate cognitive function (Morris water maze test; Morris R et al., J Neuroscience Methods 1984, 11, 47-60) was performed (day 7 to 12). As a negative control, mice which had received oral administration of distilled water for four weeks were administered Aβ 40-1 intracerebroventricularly. The administration of olmesartan medoxomil or distilled water was continued until the end of the behavioral test. Measurements were performed as described below. • Hidden platform test: A platform is placed below the water surface of a water pool 150 cm in diameter filled with white water-colored. Mice are released into the water, and the time it takes them to reach the platform is measured. This trial is performed three times a day and for five consecutive days. As they learn, mice become able to reach the platform more quickly day by day. • Visible platform test: Mice are released into the water under such conditions that they can see the platform. The time it takes them to reach the platform is measured. • Probe test: The platform is removed, and mice are released and allowed to swim freely. Those mice with good learning/memory swim in the quadrant where the platform was located searching for the platform. The time they spent in that quadrant is measured. • Annnulus crossing: The number of times mice crossed the platform in the probe test is counted.

A short description of assay [3]: Blood pressure, Test Example 2 (hydralazine as hypotensive control). The note with it: after 4-week oral administration (day −1); olmesartan medoxomil 1 mg/kg/day, hydralazine 30 mg/kg/day. As for the experimental part: Further, assessment of blood pressure was performed by the tail-cuff method (using a sphygmomanometer wound around the mouse tail) (Bunag R D, J Lab Clin Med. 1971, 78, 957-62) immediately before the start of administration of olmesartan medoxomil or distilled water (day −30), immediately before (day −1) and immediately after (day 2) the Aβ intracerebroventricular administration, and after completion of the behavioral test (day 14) (see FIG. 1). […] The dose of olmesartan medoxomil was set at a low level of 1 mg/kg/day in view of the experimental results of Test Example 1. […] The number of successive interceptions by the subject of the two adjoining beams on each bank is counted as locomotion score. • Long-term retention: On day 12 after the completion of the hidden platform test as a water maze test, mice are released into the water and the time it takes them to reach the platform is measured. • Working memory task: The platform is transferred and fixed at a new place. Mice are given four consecutive trials at intervals of as short as 20 seconds, and the time it takes them to reach the platform is measured. […] In order to eliminate this influence, swimming speed is measured.

Where [4] appears, read: 0.5 mg/kg/day oral, versus Aβ 1-40 administration group.
Where [5] appears, read: 1.0 mg/kg/day oral, versus Aβ 1-40 administration group.

Turning to `CCCc1nc(C(C)(C)O)c(C(=O)OCc2oc(=O)oc2C)n1Cc1ccc(-c2ccccc2-c2nnn[nH]2)cc1` [olmesartan medoxomil, (5-methyl-2-oxo-1,3-dioxolen-4-yl)methyl 4-(1-hydroxy-1-methylethyl)-2-propyl-1-[4-[2-(tetrazol-5-yl)phenyl]phenyl]methyl-imidazole-5-carboxylate], the “blood pressure compared to the distilled water administration group” value in assay [1] (after 4-week oral administration (day −1), olmesartan medoxomil administration groups (0.5, 1, 3, 6 mg/kg/day)) is “significantly lowered”. For the same compound, the blood pressure result in assay [1] (immediately after Aβ administration (day 2) and after completion of the behavioral test (day 14)) is reported as “A similar tendency was observed”; in assay [1] (lowest dose 0.5 mg/kg/day oral, after 4-week administration (day −1)), “significant lowering”. The “hidden platform test: escape latency (impairment in spatial memory and learning ability)” value is “improved significantly” in assay [2] (setting [4]); “improved significantly” in assay [2] (setting [5]); “improved significantly” in assay [2] (3.0 mg/kg/day oral, versus Aβ 1-40 administration group). Moreover, the “probe test: time spent in the target quadrant” value in assay [2] (setting [4]) and in assay [2] (setting [5]) was “significantly improved” throughout. The “number of annulus crossings” value in assay [2] (setting [5]) is listed as “significantly improved”. Besides, the figures for the “improvement of impairment in spatial memory and learning evoked by Aβ 1-40” value in assay [2] (high dose groups (3-6 mg/kg/day)) and in assay [2] (low dose groups (0.5-1 mg/kg/day)) were “not observed” and “observed”, respectively. Further, in assay [2] (oral administration for four weeks in advance of Aβ 1-40), the “cognitive impairment (spatial memory and learning) in Morris water maze test, overall” value is “significantly improved”. Further, the “blood pressure compared to distilled water administration group” value in assay [3] was “lowered significantly”.

These data come from patent publication US20120302614A1, “METHOD FOR IMPROVING CEREBRAL CIRCULATION OR TREATING A CEREBRAL BLOOD FLOW DISORDER” (OSAKA UNIVERSITY, priority 2007, published 2012).
